According to patent US20070197525A1, “Novel tetracyclic tetrahydrofuran derivatives” (priority 2004, published 2007):

Tests used:
[1] = biological target: T1, human cloned 5-HT2A receptor (Homo sapiens, UniProt P28223); test: In vitro binding affinity for 5-HT2A receptor (radioligand binding); conditions: human cloned 5-HT2A receptor expressed in L929 cells, [125I]R91150 radioligand; read-out: 5-HT2A (pIC50) (converted)
T1 construct: expressed in transfected cells; host or cells: L929 cells
Protocol: (§1) The interaction of the compounds of Formula (I) with 5-HT2A and 5-HT2C receptors was assessed in in vitro radioligand binding experiments. In general, a low concentration of a radioligand with a high binding affinity for the receptor is incubated with a sample of a tissue preparation enriched in a particular receptor (1 to 5 mg tissue) in a buffered medium (0.2 to 5 ml). During the incubation, the radioligands bind to the receptor. When equilibrium of binding is reached, the receptor bound radioactivity is separated from the non-bound radioactivity, and the receptor bound activity is counted. The interaction of the test compounds with the receptors is assessed in competition binding experiments. Various concentrations of the test compound are added to the incubation mixture containing the tissue preparation and the radioligand. Binding of the radioligand will be inhibited by the test compound in proportion to its binding affinity and its concentration. The affinities of the compounds for the 5-HT2 receptors were measured by means of radioligand binding studies conducted with: (a) human cloned 5-HT2A receptor, expressed in L929 cells using [^125I]R91150 as radioligand and (b) human cloned 5-HT2C receptor, expressed in CHO cells using [^3H]mesulergine as radioligand.

[2] = biological target: T2, human cloned 5-HT2C receptor (Homo sapiens, UniProt P28335); test: In vitro binding affinity for 5-HT2C receptor (radioligand binding); conditions: human cloned 5-HT2C receptor expressed in CHO cells, [3H]mesulergine radioligand; read-out: 5-HT2C (pIC50) (converted)
T2 construct: expressed in transfected cells; host or cells: CHO cells
T2 sequence (P28335 33-458): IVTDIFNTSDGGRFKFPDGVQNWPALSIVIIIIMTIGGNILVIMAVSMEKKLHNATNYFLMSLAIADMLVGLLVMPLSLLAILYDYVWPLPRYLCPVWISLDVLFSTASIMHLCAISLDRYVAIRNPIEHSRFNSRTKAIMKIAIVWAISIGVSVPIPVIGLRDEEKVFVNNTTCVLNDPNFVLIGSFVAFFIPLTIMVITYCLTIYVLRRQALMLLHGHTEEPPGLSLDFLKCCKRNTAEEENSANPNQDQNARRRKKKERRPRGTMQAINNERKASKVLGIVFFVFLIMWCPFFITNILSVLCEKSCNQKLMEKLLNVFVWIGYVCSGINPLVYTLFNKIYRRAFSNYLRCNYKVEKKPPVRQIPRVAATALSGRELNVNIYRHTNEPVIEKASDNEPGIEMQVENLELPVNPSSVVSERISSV
Protocol: as §1

[3] = biological target: T3, human dopamine D2L receptor (Homo sapiens, UniProt P14416); test: In vitro assay for D2 receptor binding; conditions: for IC50: membranes of human D2L-transfected CHO cells, [3H]Spiperone radioligand, read-out: D2 (pIC50) (converted); for D2/NET: ratio of D2 pIC50 to NET-inhibition pIC50
T3 construct: expressed in transfected cells; host or cells: CHO cells (frozen membranes)
Protocol: Frozen membranes of human dopamine D2L receptor-transfected CHO cells were thawed, briefly homogenised using an Ultra-Turrax T25 homogeniser and diluted in Tris-HCl assay buffer containing NaCl, CaCl2, MgCl2, KCl (50, 120, 2, 1, and 5 mM respectively, adjusted to pH 7.7 with HCl) to an appropriate protein concentration optimised for specific and non-specific binding. Radioligand [^3H]Spiperone (NEN, specific activity ˜70 Ci/mmol) was diluted in assay buffer at a concentration of 2 nmol/L. Prepared radioligand (50 μl), along with 50 μl of either the 10% DMSO control, Butaclamol (10^−6 mol/l final concentration), or compound of interest, was then incubated (30 min, 37° C.) with 400 μl of the prepared membrane solution. Membrane-bound activity was filtered through a Packard Filtermate harvester onto GF/B Unifilterplates and washed with ice-cold Tris-HCl buffer (50 mM; pH 7.7; 6×0.5 ml). Filters were allowed to dry before adding scintillation fluid and counting in a Topcount scintillation counter. Percentage specific bound and competition binding curves were calculated using S-Plus software (Insightful).

[4] = biological target: T4, norepinephrine transporter (NET) (Rattus norvegicus, UniProt Q63380); test: In vitro assay for NET inhibition (radioligand binding, rat brain cortex); conditions: rat brain cortex membranes, [3H]Nixosetine radioligand; read-out: NET-inhibition (pIC50) (converted)
T4 construct: Cortex from rat brain was collected and homogenised; from tissue; host or cells: rat brain cortex membranes
Protocol: Cortex from rat brain was collected and homogenised using an Ultra-Turrax T25 and a Dual homogeniser in ice-cold homogenising buffer containing Tris, NaCl and KCl (50 mM, 120 mM and 5 mM, respectively, pH 7.4) prior to dilution to an appropriate protein concentration optimised for specific and non-specific binding. […] Membrane-bound activity was detected by filtration through a Packard Filtermate harvester onto GF/B Unifilterplates, washed with ice-cold Tris-HCl buffer, containing NaCl and KCl (50 mM, 120 mM and 4 mM; pH 7.4; 6×0.5 ml). Filters were allowed to dry for 24 h before adding scintillation fluid. Scintillation fluid was allowed to saturate filters for 24 h before counting in a Topcount scintillation counter. Percentage specific bound and competition binding curves were calculated using S-Plus software (Insightful).

[5] = Metabolic stability assay using human liver microsomes; type: in vitro ADME; conditions: 5.0 μM test compound, 15 min incubation, LC-MS
Protocol: Compounds according to the invention were tested for metabolic stability in the following assay using human liver microsomes in comparison with prior art compound A, referred to above.
Sub-cellular tissue preparations are made by centrifugal separation after mechanical homogenization of tissue. Tissue is rinsed in ice cold 0.1 M Tris-HCl (pH 7.4) buffer to wash excess blood. Tissue is then blotted dry, weighed and chopped coarsely using surgical scissors. The tissue pieces are homogenized in 3 volumes of ice cold 0.1 M phosphate buffer (pH 7.4) for 7×10 sec. The vessel is kept in/on ice during the homogenization process. Tissue homogenates are centrifuged at 9000×g for 20 minutes at 4° C. The resulting supernatant can be stored at −80° C. and is designated ‘S9’.
The S9-fraction may be centrifuged at 100.000×g for 60 minutes (4° C.). The resulting supernatant is aspirated, aliquoted and designated ‘cytosol’. The pellet is re-suspended in 0.1 M phosphate buffer (pH 7.4) in a final volume of 1 mL per 0.5 g original tissue weight and designated ‘microsomes’.
The incubation is carried out in the following system:
• The reaction is started by the addition of 0.8 mM NADP and incubated for 15 min. • Total assay volume is 250 microliters. • The reaction is stopped by the addition of 2 volumes of DMSO (or acetonitrile). • The samples are centrifuged (10 min, 900×g) and supernatant stored at room temperature (when stopped with DMSO; no longer than 24 h) or −20° C. (when stopped with acetonitrile; no longer than 24 h) before analysis. • The supernatant material is then analysed by LC-MS to determine the extent of metabolism of the test compound in the microsomes

T3 sequence (P14416 whole entry): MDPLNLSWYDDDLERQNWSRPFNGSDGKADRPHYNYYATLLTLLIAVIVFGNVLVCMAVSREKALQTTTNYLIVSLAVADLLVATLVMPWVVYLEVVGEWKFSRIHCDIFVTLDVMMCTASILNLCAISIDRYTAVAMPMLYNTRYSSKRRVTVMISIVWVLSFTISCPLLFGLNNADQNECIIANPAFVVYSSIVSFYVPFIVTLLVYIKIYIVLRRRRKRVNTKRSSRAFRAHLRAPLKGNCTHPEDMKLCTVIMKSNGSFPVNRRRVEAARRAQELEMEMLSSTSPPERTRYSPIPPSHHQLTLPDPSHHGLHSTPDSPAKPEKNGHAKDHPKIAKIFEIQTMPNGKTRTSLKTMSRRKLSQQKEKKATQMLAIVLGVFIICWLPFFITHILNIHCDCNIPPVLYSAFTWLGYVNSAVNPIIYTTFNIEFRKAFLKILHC
T4 sequence (Q63380 1-617): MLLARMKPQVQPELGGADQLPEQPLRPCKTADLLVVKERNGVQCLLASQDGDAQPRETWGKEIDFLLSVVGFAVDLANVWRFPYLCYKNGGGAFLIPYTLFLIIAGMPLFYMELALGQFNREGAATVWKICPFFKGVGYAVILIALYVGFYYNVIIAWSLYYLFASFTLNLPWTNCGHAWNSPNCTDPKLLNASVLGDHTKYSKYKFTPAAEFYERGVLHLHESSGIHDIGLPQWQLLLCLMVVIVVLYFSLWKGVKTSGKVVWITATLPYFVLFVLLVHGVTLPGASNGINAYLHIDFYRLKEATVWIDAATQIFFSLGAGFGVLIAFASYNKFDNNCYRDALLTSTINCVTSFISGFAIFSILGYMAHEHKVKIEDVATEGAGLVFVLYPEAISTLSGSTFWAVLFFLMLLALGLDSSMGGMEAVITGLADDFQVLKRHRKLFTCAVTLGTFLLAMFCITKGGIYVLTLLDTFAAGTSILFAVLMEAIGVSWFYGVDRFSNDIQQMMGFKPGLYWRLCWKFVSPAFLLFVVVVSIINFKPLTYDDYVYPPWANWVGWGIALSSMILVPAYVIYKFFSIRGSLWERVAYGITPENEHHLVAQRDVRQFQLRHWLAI
T1 sequence (P28223 whole entry): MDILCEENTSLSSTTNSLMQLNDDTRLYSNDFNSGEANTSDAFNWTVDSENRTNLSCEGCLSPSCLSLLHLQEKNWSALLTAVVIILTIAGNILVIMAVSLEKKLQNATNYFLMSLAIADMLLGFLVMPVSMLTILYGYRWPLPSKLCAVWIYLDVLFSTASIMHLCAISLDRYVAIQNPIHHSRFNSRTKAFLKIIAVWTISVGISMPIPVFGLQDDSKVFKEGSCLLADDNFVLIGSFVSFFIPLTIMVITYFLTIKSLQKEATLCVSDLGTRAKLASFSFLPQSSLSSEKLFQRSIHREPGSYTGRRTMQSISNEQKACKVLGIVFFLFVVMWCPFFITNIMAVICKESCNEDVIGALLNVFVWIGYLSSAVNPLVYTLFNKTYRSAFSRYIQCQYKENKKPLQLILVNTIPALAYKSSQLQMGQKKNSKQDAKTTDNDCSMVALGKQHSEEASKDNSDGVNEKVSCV

IC50 [1] [nM]	IC50 [2] [nM]	IC50 [3] [nM]	D2/NET [3]	IC50 [4] [nM]	% metabolised [5] [%]	Structure (SMILES)
20	5.01	1260	0.67	3.98		CCNC[C@H]1C[C@@H]2c3ccccc3[C@@H](O)c3ccc(F)cc3[C@H]2O1 (relative stereo) [Compound 106]
158	25.1	> 10000	<0.65	20		C=C1c2ccccc2C2CC(CN(C)C)OC2c2ccccc21 (single isomer, unassigned) [Compound 24]
63.1	79.4	> 1000	<0.83	63.1		CN(C)C[C@H]1C[C@@H]2c3ccccc3C(=O)c3ccc(F)cc3[C@H]2O1 [Compound 12]
					2.6	C=C1c2ccccc2[C@H]2C[C@H](CN(C)C)O[C@@H]2c2cc(F)ccc21 [Compound 26]
25.1	3.98	316	0.86	31.6	11.35	C[C@@H]1c2ccccc2[C@H]2C[C@H](CN(C)C)O[C@@H]2c2cc(F)ccc21 [Compound 66]
	12.6	> 10000	<0.92	3980		OC1c2ccccc2C2CC(CNCc3ccccc3)OC2c2cc(F)ccc21 (centres unmarked) [Compound 109]
1260	398	> 10000	<0.62	10		CCNC[C@H]1C[C@@H]2c3ccccc3[C@@H](OC)c3ccc(F)cc3[C@H]2O1 [Compound 110]
	79.4	3160	0.96	2000		COC1c2ccccc2C2CC(CNCc3ccccc3)OC2c2cc(F)ccc21 (centres unmarked) [Compound 111]

Second part, the compound before the results:

Structure (SMILES)	IC50 [1] [nM]	IC50 [2] [nM]	IC50 [3] [nM]	D2/NET [3]	IC50 [4] [nM]	% metabolised [5] [%]
CNCC1CC2c3ccccc3C(C)c3ccc(F)cc3C2O1 (single isomer, unassigned) [Compound 73]	2	2	63.1	0.96	39.8	
CNCC1CC2c3ccccc3C(C)c3ccc(F)cc3C2O1 (single isomer, unassigned) [Compound 74]	12.6	3.98	631	0.74	5.01	9
C=C1c2ccccc2[C@H]2C[C@H](CN(C)C)O[C@@H]2c2ccccc21 [Compound 25]	12.6	3.98	200	0.85	12.6	
CNC[C@H]1C[C@@H]2c3ccccc3[C@H](O)c3ccc(F)cc3[C@H]2O1 [Compound 34]	31.6	5.01	> 1000	<0.77	20	
CN(C)C[C@H]1C[C@@H]2c3ccccc3[C@](C)(O)c3ccc(F)cc3[C@H]2O1 [Compound 41]	31.6	50.1	> 1000	<0.87	126	2.25
CNC[C@H]1C[C@@H]2c3ccccc3[C@@H](OC(C)C)c3ccc(F)cc3[C@H]2O1 [Compound 63]	316	100	> 10000	<0.92	3980	
NC[C@H]1C[C@@H]2c3ccccc3[C@@H](O)c3ccc(F)cc3[C@H]2O1 [Compound 104]	12.6	2.51	7940	0.60	200	
CCNC[C@H]1C[C@@H]2c3ccccc3[C@H](O)c3ccc(F)cc3[C@H]2O1 [Compound 107]	20	6.31	1580	0.86	158	
